The results in this text go back to patent US10653658B2, “Biofilm inhibiting compositions enhancing weight gain in livestock” (Akeso Biomedical, Inc., priority 2015, dated 2020).

SMILES strings stand for the structures.

In assay [1] the test system is Campylobacter jejuni NCTC 11168. The assay is described as follows: Biofilm formation on plastic coated UV beads (Example 6). As to conditions: Fe-Tart and Fe-Cit at 50, 100, and 300 μM; FeQ (QPLEX) at 300.
The subject of the next assay is Salmonella. The assay is described as follows: Salmonella cfu/g of caeca at day 42 (Example 10). The class given is in vivo. The settings on record: in feed. The procedure:
(§1) A study was performed to evaluate growth promotion and reduction of Campylobacter carriage using FeTyr in Ross 308 male broilers with 7 treatment groups. Each treatment group comprised eight replicates of 10 birds per pen (80 birds/treatment group), with 2 control groups and […]. All the test groups and both of the control groups were exposed at day 20 of the trial to dirty litter, which tested positive for Campylobacter. This method was used to provide a more natural method to Campylobacter challenge the birds. Thus there were two positive controls where each treatment group was challenged with Campylobacter, and five treatment groups that were all challenged with Campylobacter. The total number of birds used in the 7 treatment groups was 560.
(§2) At day 20, litter, which was naturally Campylobacter-contaminated, was tested to confirm the presence of Campylobacter, and then added (approximately 2 kg/pen) to the litter in all pens. At day 42, caecal samples were taken and tested for Campylobacter, E. coli and Salmonella enumeration.

For the next assay, the system named is Campylobacter. The assay is described as follows: Campylobacter cfu/g of caeca at day 42 (Example 10). The assay is classed as in vivo. As to conditions: in feed. The procedure: as §1, §2
The test system of a further assay is Campylobacter jejuni. The assay is described as follows: Campylobacter carriage in chickens after oral challenge, caecal contents at day 35 (Example 9). The assay is classed as in vivo. As to conditions: 340 μM in the drinking water; oral challenge at day 14. The procedure:
A study was performed to evaluate reduction of Campylobacter carriage in chickens using ferric lactate in one treatment group, and FeQ (Q-PLEX) in a second treatment group. A third treatment group served as a positive control. The ferric lactate and FeQ were administered to the treatment groups at a concentration of 340 μM in the drinking water. Each treatment group comprised 12 birds per pen. All three treatment groups were orally challenged with 10^5 cfu of Campylobacter jejuni at day 14 of the trial. At day 35 all birds were euthanized, and quantitative bacteriology performed on caecal contents.

For the molecule `O=C([O-])C1(O)CC(O)C(O)C(O)C1.O=C([O-])C1(O)CC(O)C(O)C(O)C1.O=C([O-])C1(O)CC(O)C(O)C(O)C1.[Fe+3]` (stereo not shown) [FeQ, Ferric Quinate], in assay [1], the “C. jejuni biofilm formation on plastic coated UV beads (FIG. 9)” value is recorded as “inhibited C. jejuni biofilm formation”. Also, the “Salmonella cfu/g of caeca at day 42 (FIG. 15)” value in the assay with Salmonella is “positive effect on reducing Campylobacter infection”. The “Campylobacter cfu/g of caeca at day 42 (FIG. 14)” value in the assay on Campylobacter is on record as “positive effect on reducing Campylobacter infection”. For the same molecule, the “levels of Campylobacter in caeca at day 35 compared with positive control (FIG. 11)” value in the assay with Campylobacter jejuni is given as “lower levels of Campylobacter in their caeca”.
